Reference: ChEMBL document CHEMBL1201862, “PubChem BioAssay data set” (2004)
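Growth conditions: 96-well plates. Treatment: test compound, 48 hours, 5 concentrations. Analysis: linear interpolation between bracketing concentrations; unreached endpoints set to highest concentration. At the GI50, growth is halved.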 Activity calls are given as the source filed them. No stated cut-off is given here; in the data, active = GI50 up to about 1.1 µM and inactive = higher.

How the values were obtained:
Test in all cases: inhibition of tumour cell growth, NCI panel, 48 h
[1] = system: HOP-62
[2] = system: UACC-62
[3] = system: SF-295
[4] = system: UACC-257
[5] = system: OVCAR-3
[6] = system: A498
[7] = system: SW-620
[8] = system: A549
[9] = system: SK-MEL-5
[10] = system: HCT-116
[11] = system: SR
[12] = system: IGROV-1
[13] = system: Malme-3M
[14] = system: U-251
[15] = system: SF-539
[16] = system: COLO 205
[17] = system: RXF 393
[18] = system: LOX IMVI

`Cc1cc(N(CCC#N)CCC#N)ccc1/C=C1\N=C(c2cc([N+](=O)[O-])ccc2Cl)N(c2cccc(Cl)c2)C1=O` was tested, and the GI50 [1] was > 100 µM (inactive), the GI50 [2] was > 100 µM (inactive) and the GI50 [3] was > 100 µM (inactive). The GI50 [4] was > 100 µM (inactive), the GI50 [5] was > 100 µM (inactive) and the GI50 [6] was > 100 µM (inactive). For the same compound, the GI50 [7] was < 0.01 µM (active), the GI50 [8] was > 100 µM (inactive) and the GI50 [9] was > 100 µM (inactive). For the same compound, the GI50 [10] was > 100 µM (inactive), the GI50 [11] was 94.4 µM (inactive) and the GI50 [12] was > 100 µM (inactive). For the same compound, the GI50 [13] was > 100 µM (inactive), the GI50 [14] was > 100 µM (inactive) and the GI50 [15] was > 100 µM (inactive). For the same compound, the GI50 [16] was 87.7 µM (inactive).

`COC(=O)CSc1ccccc1` was tested, and the GI50 [1] was > 100 µM (inactive), the GI50 [2] was > 100 µM (inactive) and the GI50 [3] was > 100 µM (inactive). The GI50 [4] was > 100 µM (inactive), the GI50 [5] was > 100 µM (inactive) and the GI50 [6] was > 100 µM (inactive). For the same compound, the GI50 [7] was > 100 µM (inactive), the GI50 [8] was > 100 µM (inactive) and the GI50 [9] was > 100 µM (inactive). The GI50 [10] was > 100 µM (inactive), the GI50 [12] was > 100 µM (inactive) and the GI50 [13] was 25.4 µM (inactive). The GI50 [14] was > 100 µM (inactive), the GI50 [17] was > 100 µM (inactive) and the GI50 [15] was > 100 µM (inactive). The GI50 [18] was > 100 µM (inactive) and the GI50 [16] was > 100 µM (inactive).

In the case of `O=c1cc(-c2ccccc2)oc2cc(OCCSCCCCCCCCCCSCCOc3ccc4c(=O)cc(-c5ccccc5)oc4c3)ccc12`, the GI50 [1] is reported as 51.9 µM (inactive), the GI50 [2] is reported as 65.9 µM (inactive) and the GI50 [3] is reported as > 100 µM (inactive). For the same compound, the GI50 [4] was > 100 µM (inactive), the GI50 [5] was > 100 µM (inactive) and the GI50 [7] was > 100 µM (inactive). For the same compound, the GI50 [8] was > 100 µM (inactive), the GI50 [9] was > 100 µM (inactive) and the GI50 [10] was > 100 µM (inactive). For the same compound, the GI50 [11] was > 100 µM (inactive), the GI50 [12] was > 100 µM (inactive) and the GI50 [13] was > 100 µM (inactive). For the same compound, the GI50 [14] was > 100 µM (inactive), the GI50 [17] was 37.2 µM (inactive) and the GI50 [18] was > 100 µM (inactive). For the same compound, the GI50 [16] was > 100 µM (inactive).

`COC1/C(=C\C(=O)OC(C)(C)C)c2ccccc2N1C(C)=O` (configuration not stated) was tested, and the GI50 [1] was > 100 µM (inactive), the GI50 [2] was > 100 µM (inactive) and the GI50 [3] was > 100 µM (inactive). The GI50 [4] was > 100 µM (inactive), the GI50 [5] was > 100 µM (inactive) and the GI50 [6] was > 100 µM (inactive). For the same compound, the GI50 [7] was > 100 µM (inactive), the GI50 [8] was > 100 µM (inactive) and the GI50 [10] was > 100 µM (inactive). The GI50 [11] was 48 µM (inactive), the GI50 [12] was > 100 µM (inactive) and the GI50 [14] was > 100 µM (inactive). For the same compound, the GI50 [17] was 26.6 µM (inactive), the GI50 [15] was > 100 µM (inactive) and the GI50 [16] was > 100 µM (inactive).

For `CCCCOC1CC2(c3ccc(OC)cc3)C(=O)c3ccccc3N2O1` (configuration not stated), the GI50 [2] was > 10 µM (inactive), the GI50 [3] was 42.1 µM (inactive) and the GI50 [4] was 16 µM (inactive). For the same compound, the GI50 [5] was 56.1 µM (inactive), the GI50 [6] was > 10 µM (inactive) and the GI50 [7] was 65 µM (inactive). For the same compound, the GI50 [8] was 43.8 µM (inactive), the GI50 [9] was 31.7 µM (inactive) and the GI50 [10] was 37.5 µM (inactive). For the same compound, the GI50 [12] was > 10 µM (inactive), the GI50 [13] was 19.2 µM (inactive) and the GI50 [14] was > 10 µM (inactive). The GI50 [17] was 16.6 µM (inactive), the GI50 [15] was 90.6 µM (inactive) and the GI50 [18] was > 10 µM (inactive). The GI50 [16] was 27.1 µM (inactive).

`COc1ccc(/C=c2/sc3n(c2=O)NC(c2ccc(Cl)cc2)NN=3)cc1` (configuration not stated) was tested, and the GI50 [2] was > 100 µM (inactive), the GI50 [3] was > 100 µM (inactive) and the GI50 [5] was > 100 µM (inactive). For the same compound, the GI50 [7] was > 100 µM (inactive), the GI50 [8] was > 100 µM (inactive) and the GI50 [9] was > 100 µM (inactive). For the same compound, the GI50 [10] was > 100 µM (inactive), the GI50 [11] was > 100 µM (inactive) and the GI50 [12] was > 100 µM (inactive). For the same compound, the GI50 [13] was > 100 µM (inactive), the GI50 [14] was > 100 µM (inactive) and the GI50 [17] was > 100 µM (inactive). The GI50 [15] was > 100 µM (inactive), the GI50 [18] was > 100 µM (inactive) and the GI50 [16] was > 100 µM (inactive).

`O=C(O)Cn1c(=O)[nH]c(=O)c2c1ncn2Cc1ccccc1` was tested, and the GI50 [1] was > 100 µM (inactive), the GI50 [2] was > 100 µM (inactive) and the GI50 [5] was > 100 µM (inactive). The GI50 [6] was > 100 µM (inactive), the GI50 [7] was > 100 µM (inactive) and the GI50 [8] was > 100 µM (inactive). The GI50 [9] was > 100 µM (inactive), the GI50 [10] was > 100 µM (inactive) and the GI50 [11] was > 100 µM (inactive). The GI50 [13] was > 100 µM (inactive), the GI50 [14] was > 100 µM (inactive) and the GI50 [15] was > 100 µM (inactive). The GI50 [16] was > 100 µM (inactive).

In the case of `CCCCCC(=O)Cc1cc(OC)cc2c1C(=O)Oc1cc(O)c(C(=O)O)c(CC(=O)CCCCC)c1O2`, the GI50 [1] is reported as > 100 µM (inactive), the GI50 [2] is reported as 20.6 µM (inactive) and the GI50 [3] is reported as 55.3 µM (inactive). For the same compound, the GI50 [4] was 71.4 µM (inactive), the GI50 [5] was 24 µM (inactive) and the GI50 [6] was 39 µM (inactive). The GI50 [7] was > 100 µM (inactive), the GI50 [8] was 43.2 µM (inactive) and the GI50 [9] was > 100 µM (inactive). For the same compound, the GI50 [10] was 26 µM (inactive), the GI50 [11] was 52.6 µM (inactive) and the GI50 [12] was 39.4 µM (inactive). For the same compound, the GI50 [13] was 51.4 µM (inactive), the GI50 [14] was 15.8 µM (inactive) and the GI50 [15] was > 10 µM (inactive). The GI50 [18] was 77.8 µM (inactive) and the GI50 [16] was 45 µM (inactive).

For `Nc1nnc2c(-c3ccccc3)n[nH]c2n1`, the GI50 [3] was 67 µM (inactive), the GI50 [4] was 50.7 µM (inactive) and the GI50 [5] was > 100 µM (inactive). The GI50 [6] was 12.9 µM (inactive), the GI50 [7] was 54.7 µM (inactive) and the GI50 [8] was 23.5 µM (inactive). The GI50 [10] was > 100 µM (inactive), the GI50 [11] was 27.4 µM (inactive) and the GI50 [17] was 34.1 µM (inactive). The GI50 [15] was 24.8 µM (inactive), the GI50 [18] was 50.6 µM (inactive) and the GI50 [16] was 34.4 µM (inactive).
